The record followed here is PubChem BioAssay (NCI).

Some test systems named below: NCI-H23 lung; SNB-75 CNS; OVCAR-3 ovarian; HOP-62 NSCLC; 786-0 renal; NCI-H226 lung; SW-620 colon; COLO 205 colon; DU-145 prostate; SK-MEL-2 melanoma.
Holding throughout (experiment): growth of human tumour cells (NCI), 48 h

Each structure is given as a SMILES string. Values joined by “and” are separate entries in the source; they are usually repeats but may differ in a detail not shown here. Equal entries are not always repeated.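 Cultured in 96-well plates, cells were exposed to test compound for 48 hours across five concentrations. Here, GI50 denotes the concentration required for 50% inhibition of growth. Definition used: TGI = concentration required for complete inhibition of growth.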 Bounds are passed on as bounds.

In the case of `COC(=O)[C@@]12OC[C@]34[C@H]([C@@H](O)[C@@H]1O)[C@@]1(C)[C@H](O)C(=O)C=C(C)[C@@H]1C[C@H]3OC(=O)C(OC(C)=O)[C@@H]24` (some centres not stated), the GI50 is 0.0187 µM in the assay with NCI-H23 lung; 0.0273 µM in the assay on SNB-75 CNS; 0.0248 µM in the assay on OVCAR-3 ovarian; 0.0294 µM in the assay on HOP-62 NSCLC; 0.026 µM in the assay on 786-0 renal; 0.025 µM in the assay on NCI-H226 lung. Besides, the GI50 was 0.0242 µM with SW-620 colon, 0.0408 µM in the assay on COLO 205 colon, 0.0445 µM in the assay on DU-145 prostate and 0.0574 µM in the assay on SK-MEL-2 melanoma. In addition, the TGI in the assay on NCI-H23 lung is 0.0567 µM; with SNB-75 CNS, 0.121 µM; in the assay with OVCAR-3 ovarian, 0.0714 µM; in the assay with HOP-62 NSCLC, 0.156 µM; with 786-0 renal, 0.0889 µM; in the assay with NCI-H226 lung it was 0.0992 µM. Further, the TGI with SW-620 colon worked out at 0.128 µM; in the assay on COLO 205 colon, 0.178 µM; in the assay on DU-145 prostate it was 0.206 µM; with SK-MEL-2 melanoma it was 0.319 µM.
Consider `CCN(Cc1ccc(F)cc1)c1ccc(CO)c(F)c1`, for which the GI50 with NCI-H23 lung was 17.5 µM; with SNB-75 CNS, 10 µM; with OVCAR-3 ovarian it was 5.38 µM; with HOP-62 NSCLC, 15.2 µM; in the assay with 786-0 renal, 12.6 µM; in the assay on NCI-H226 lung, 0.171 µM. Further, the GI50 was 7.09 µM with SW-620 colon, 10.8 µM in the assay on COLO 205 colon, 23.5 µM in the assay with DU-145 prostate and 10.5 µM in the assay with SK-MEL-2 melanoma. In addition, the TGI is over 94.6 µM with NCI-H23 lung; over 86.4 µM in the assay on SNB-75 CNS; 18 µM in the assay on OVCAR-3 ovarian; over 100 µM in the assay on HOP-62 NSCLC; 36.6 µM with 786-0 renal; 0.364 µM with NCI-H226 lung. Also, the TGI in the assay on SW-620 colon is over 100 µM; in the assay with COLO 205 colon, 27.6 µM; in the assay on DU-145 prostate it was over 100 µM; in the assay with SK-MEL-2 melanoma, 26.8 µM.
`COc1cc2c3c(n(CCCCN)c(=O)c2cc1OC)-c1cc2c(cc1C3=O)OCO2`: the GI50 in the assay on NCI-H23 lung was 0.676 µM; with SNB-75 CNS, 0.778 µM; in the assay with OVCAR-3 ovarian, 1.01 µM; in the assay with HOP-62 NSCLC, 0.322 µM; with 786-0 renal, 0.172 µM; in the assay with NCI-H226 lung it was 0.492 µM. Also, the GI50 was 0.0851 µM in the assay on SW-620 colon, 1.04 µM in the assay with COLO 205 colon, 0.147 µM in the assay with DU-145 prostate and 6.3 µM in the assay on SK-MEL-2 melanoma. Also, the TGI came out at 3.09 µM in the assay with NCI-H23 lung; 5.5 µM in the assay with SNB-75 CNS; 2.67 µM in the assay with OVCAR-3 ovarian; 1.21 µM in the assay on HOP-62 NSCLC; 0.889 µM with 786-0 renal; 1.58 µM with NCI-H226 lung. The TGI worked out at 2.3 µM in the assay with SW-620 colon, 6.17 µM in the assay with COLO 205 colon, 1.03 µM with DU-145 prostate and 18 µM in the assay with SK-MEL-2 melanoma.
As to `CCC1CN2C(=N1)c1ccccc1-c1cc(Cl)ccc12` (configuration not stated), the GI50 in the assay on NCI-H23 lung is 3.78 µM; with SNB-75 CNS it was 3.73 µM; with OVCAR-3 ovarian, 3.48 µM; in the assay on HOP-62 NSCLC, 2.97 µM; with 786-0 renal it was 3.32 µM; in the assay on NCI-H226 lung, 1.81 µM. Also, the GI50 with SW-620 colon is 2.72 µM; in the assay with COLO 205 colon it was 3.21 µM; in the assay with DU-145 prostate, 2.31 µM; with SK-MEL-2 melanoma, 2.75 µM. Moreover, the TGI in the assay with NCI-H23 lung is 15.2 µM; in the assay on SNB-75 CNS, 16 µM; in the assay on OVCAR-3 ovarian, 9.9 µM; in the assay with HOP-62 NSCLC, 8.87 µM; in the assay on 786-0 renal it was 13 µM; with NCI-H226 lung, 4.86 µM. Besides, the TGI worked out at 15.5 µM in the assay with SW-620 colon, 12.6 µM in the assay with COLO 205 colon, 6.26 µM in the assay with DU-145 prostate and 7.77 µM in the assay with SK-MEL-2 melanoma.
`COc1ccc(/C=C/C(=O)c2ccc(O)c(CN3CCN(c4cc5c(cc4F)c(=O)c(C(=O)O)cn5C4CC4)CC3)c2)cc1`: the GI50 in the assay with NCI-H23 lung was 2.33 µM; in the assay on SNB-75 CNS, 0.726 µM; in the assay with OVCAR-3 ovarian it was 1.97 µM; in the assay with HOP-62 NSCLC, 1.97 µM; in the assay with 786-0 renal it was 0.854 µM; in the assay on NCI-H226 lung, 3.75 µM. In addition, the GI50 in the assay on SW-620 colon was 1.38 µM; in the assay with COLO 205 colon, 11.8 µM; in the assay on DU-145 prostate, 1.47 µM; with SK-MEL-2 melanoma it was 2.87 µM. The TGI is over 100 µM in the assay on NCI-H23 lung; 6.86 µM with SNB-75 CNS; over 100 µM in the assay with OVCAR-3 ovarian; over 100 µM in the assay on HOP-62 NSCLC; over 100 µM in the assay with 786-0 renal; over 100 µM in the assay with NCI-H226 lung. Moreover, the TGI in the assay with SW-620 colon is over 100 µM; in the assay with COLO 205 colon it was 33.4 µM; in the assay on DU-145 prostate, over 100 µM; with SK-MEL-2 melanoma, 21 µM.
Consider `COc1cc(NC(C)CCCN)c2ncccc2c1` (configuration not stated), for which the TGI is over 100 µM with NCI-H23 lung; > 100 µM and 80.5 µM with SNB-75 CNS; 84.2 µM and > 100 µM in the assay with OVCAR-3 ovarian; over 100 µM in the assay with HOP-62 NSCLC; over 100 µM with 786-0 renal; over 100 µM in the assay with NCI-H226 lung. Besides, the TGI with SW-620 colon was over 100 µM; in the assay on COLO 205 colon it was 41.2 µM and 64 µM; with DU-145 prostate, over 100 µM; with SK-MEL-2 melanoma, over 89.3 µM. The GI50 is 43.6 µM and > 91.6 µM in the assay with HOP-62 NSCLC; 43.8 µM and > 88.2 µM in the assay with 786-0 renal.
With `CCn1cnc(C[C@H](NC(=O)[C@@H](NC(=O)Nc2cc(C(F)(F)F)cc(C(F)(F)F)c2)C(C)C)C(=O)OC)c1`, the GI50 in the assay with NCI-H23 lung is 2.69 µM; with SNB-75 CNS, 1.61 µM; with OVCAR-3 ovarian, 1.82 µM; with HOP-62 NSCLC, 1.87 µM; in the assay on 786-0 renal, 1.81 µM; in the assay on NCI-H226 lung, 3.74 µM. The GI50 with SW-620 colon is 2.01 µM; in the assay with COLO 205 colon it was 2.61 µM; with DU-145 prostate it was 2.26 µM; with SK-MEL-2 melanoma, over 10 µM. Further, the TGI was over 10 µM in the assay with NCI-H23 lung; 6.82 µM in the assay with SNB-75 CNS; 3.44 µM in the assay on OVCAR-3 ovarian; 3.65 µM in the assay with HOP-62 NSCLC; 3.67 µM in the assay with 786-0 renal; over 10 µM in the assay on NCI-H226 lung. For the same compound, the TGI in the assay with SW-620 colon is 4.01 µM; with COLO 205 colon, 7.07 µM; in the assay on DU-145 prostate it was 4.84 µM; in the assay on SK-MEL-2 melanoma it was over 10 µM.
